Results on 13 compounds are retold here after ChEMBL document CHEMBL4196009, “Novel vitexin-inspired scaffold against leukemia” (Eur J Med Chem, 2018).

Test [1] relates to KOPN-8. Kind of test: Antiproliferative activity against human KOPN8 cells after 72 hrs by CelTiter-Glo assay. Conditions: KOPN-8, 72 h. It is filed as functional, cell-based.
For test [2], the system named is SEM cells. Briefly: Antiproliferative activity against human SEM cells after 72 hrs by CelTiter-Glo assay. It is filed as functional, cell-based.
Test [3] has as its system SUP-B15. Briefly: Antiproliferative activity against human SUP-B15 cells after 72 hrs by CelTiter-Glo assay. Conditions: SUP-B15, 72 h. The test is classed as functional, cell-based.
The test system of test [4] is UoC-B1. Briefly: Antiproliferative activity against human UOCB1 cells after 72 hrs by CelTiter-Glo assay. The test is classed as functional, cell-based. Conditions: UoC-B1, 72 h.
Test [5] has as its system HepG2. Briefly: Antiproliferative activity against human HepG2 cells after 72 hrs by CelTiter-Glo assay. The test is classed as functional, cell-based. The settings on record: HepG2, 72 h.
Test [6] concerns BJ. Briefly: Antiproliferative activity against human BJ cells after 72 hrs by CelTiter-Glo assay. It is filed as cell-based.

Regarding `C=CCNC(=O)Nc1ccc2c(c1)c(=O)cc(C(=O)OC)n2C(=O)NCC=C`, the EC50 is > 43.3 µM in test [1]; > 43.3 µM in test [2]; 86.2 µM in test [3]; > 43.3 µM in test [4]; > 43.3 µM in test [5]; 86.2 µM in test [6].
With `COc1cc(OC)c2c(=O)cc(C(=O)Nc3ccc(-n4cccc4)cc3)[nH]c2c1`, the EC50 in test [1] was > 77 µM; in test [2], > 77 µM; in test [3] it was > 77 µM; in test [4] it was 51.8 µM; in test [5], > 77 µM; in test [6], > 77 µM.
In the case of `COc1cc(OC)c2c(=O)cc(C(=O)Nc3ccc(Oc4cccnc4)cc3)[nH]c2c1`, the EC50 was > 32.2 µM in test [1]; > 32.2 µM in test [2]; > 32.2 µM in test [3]; 27.7 µM in test [4]; > 32.2 µM in test [5]; > 32.2 µM in test [6].
Turning to `COc1cc(OC)c2c(=O)cc(C(=O)Nc3ccc4oc(-c5ccc(F)cc5)nc4c3)[nH]c2c1`, the EC50 in test [1], in test [2], in test [3], in test [4], in test [5] and in test [6] was > 36.8 µM throughout.
With `COC(=O)c1cc(=O)c2cc(NC(=O)Nc3ccc(F)c(Cl)c3)ccc2[nH]1`, the EC50 in test [1] is > 6.35 µM; in test [2] it was > 6.35 µM; in test [3], > 12.6 µM; in test [4] it was > 6.35 µM; in test [5] it was > 6.35 µM; in test [6] it was > 12.6 µM.
Turning to `COC(=O)c1cc(=O)c2c(OC)cc(OC)cc2[nH]1`, the EC50 in test [1] was > 34.5 µM; in test [2], > 34.5 µM; in test [3], 16.1 µM; in test [4], > 34.5 µM; in test [5], > 34.5 µM; in test [6], > 34.5 µM.
Regarding `COc1cc(OC)c2c(=O)cc(-c3ccc4c(c3)OCO4)[nH]c2c1`, the EC50 in test [1] is > 27.7 µM; in test [2] it was > 27.7 µM; in test [3], 18.8 µM; in test [4] it was > 27.7 µM; in test [5] it was > 27.7 µM; in test [6], > 55.2 µM.
With `COC(=O)c1cc(=O)c2cc(NC(=O)N[C@@H](C)c3cccc(OC)c3)ccc2[nH]1`, the EC50 in test [1], in test [2], in test [3], in test [4], in test [5] and in test [6] was > 25.3 µM throughout.
Turning to `COc1ccc(-c2cc(=O)c3c(OC)cc(OC)cc3[nH]2)cc1`, the EC50 is > 31.2 µM in test [1]; > 31.2 µM in test [2]; > 62.1 µM in test [3]; > 31.2 µM in test [4]; > 31.2 µM in test [5]; > 62.1 µM in test [6].
As for `COc1cc(OC)c2c(=O)cc(C(=O)Nc3cccc(-n4ccnc4)c3)[nH]c2c1`, the EC50 in test [1], in test [2], in test [3], in test [4], in test [5] and in test [6] was > 16.4 µM each time.
On to `COc1cc(OC)c2c(=O)cc(C(=O)Nc3cccc(N4CCCC4)c3)[nH]c2c1`, for which the EC50 in test [1], in test [2], in test [3], in test [4], in test [5] and in test [6] was > 58.6 µM in each case.
For `COc1cc(OC)c2c(=O)cc(C(=O)Nc3ccc(N4CCN(C)CC4)cc3)[nH]c2c1`, the EC50 in test [1], in test [2], in test [3], in test [4], in test [5] and in test [6] was > 19.8 µM in each case.
In the case of `COC(=O)c1cc(=O)c2cc(N)ccc2[nH]1`, the EC50 in test [1] was > 33.8 µM; in test [2], > 33.8 µM; in test [3], > 67.2 µM; in test [4], > 33.8 µM; in test [5], > 33.8 µM; in test [6], > 67.2 µM.

The EC50 is the midpoint of the concentration-response curve. Read a low EC50 as a more potent agent.
